Data as given in US12441733B2, “Substituted 2,4-dioxotetrahydropyrimidines as intermediates in the synthesis of bruton's tyrosine kinase inhibitors” (Novartis AG, priority 2018, dated 2025).

Assays:
OCI-LY3 cells = experiment: Resazurin cell viability (proliferation) assay in OCI-LY3 DLBCL cells; format: cell-based; conditions: Homo sapiens, OCI-LY3 cells (BTK independent), 72 h, 50% growth inhibition vs vehicle, read-out: OCI-LY3 Prol GI50
Summary of the method: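 Cells were seeded at 1×10^4 per well and dosed 3 h later: 8-point 1:4 dilutions from 10 μM (OCI-LY3), in triplicate, 72 h at 37 °C. Resazurin (13 μg/ml final) was added for the last 2 h and fluorescence read at 530/600 nm. GI50 is relative to DMSO vehicle, typically from ≥2 independent experiments.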

TMD8 cells = experiment: Resazurin cell viability (proliferation) assay in TMD8 DLBCL cells; format: cell-based; conditions: Homo sapiens, TMD8 cells (BTK dependent), 72 h, 50% growth inhibition vs vehicle, read-out: TMD8 Prol GI50
Summary of the method: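 TMD8 cells were seeded at 1×10^4 per well and treated 3 h later with compound, in an 8-point 1:4 dilution series starting at 1 μM, or DMSO, for 72 h at 37° C. Resazurin was added at 13 μg/ml final for the last 2 h, and fluorescence was read at ex 530/em 600 nm. GI50 versus vehicle was derived by curve fitting from triplicates.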

COc1ccc(C(=O)N2CCN(CCCCNCc3ccc(-c4cc5c(-c6cc(F)cc(NC(=O)c7ccc(C(C)(C)O)cc7F)c6C)ncnc5[nH]4)cc3)CC2)cc1N1CCC(=O)NC1=O [Compound 40, N-(3-(6-(4-(((4-(4-(3-(2,4-dioxotetrahydropyrimidin-1(2H)-yl)-4-methoxybenzoyl)piperazin-1-yl)butyl)amino)methyl)phenyl)-7H-pyrrolo[2,3-d]pyrimidin-4-yl)-5-fluoro-2-methylphenyl)-2-fluoro-4-(2-hydroxypropan-2-yl)benzamide]
GI50 (OCI-LY3 cells): > 10000 nM | GI50 (TMD8 cells): 3.43 nM

COc1ccc(C(=O)NCCN2CCC3(CC2)CCN(Cc2ccc(-c4cc5c(-c6cc(F)cc(NC(=O)c7ccc(C(C)(C)O)cc7F)c6C)ncnc5[nH]4)cc2)CC3)cc1N1CCC(=O)NC1=O [Compound 44, N-(3-(6-(4-((9-(2-(3-(2,4-dioxotetrahydropyrimidin-1(2H)-yl)-4-methoxybenzamido)ethyl)-3,9-diazaspiro[5.5]undecan-3-yl)methyl)phenyl)-7H-pyrrolo[2,3-d]pyrimidin-4-yl)-5-fluoro-2-methylphenyl)-2-fluoro-4-(2-hydroxypropan-2-yl)benzamide]
GI50 (OCI-LY3 cells): 3050 nM | GI50 (TMD8 cells): 3.74 nM

Cc1c(NC(=O)c2ccc(C(C)(C)O)cc2F)cc(F)cc1-c1ncnc2[nH]c(-c3ccc(CCN4CCC5(CC4)CCN(C(=O)c4ccc(F)c(N6CCC(=O)NC6=O)c4)CC5)cc3)cc12 [Compound 47, N-(3-(6-(4-(2-(9-(3-(2,4-dioxotetrahydropyrimidin-1(2H)-yl)-4-fluorobenzoyl)-3,9-diazaspiro[5.5]undecan-3-yl)ethyl)phenyl)-7H-pyrrolo[2,3-d]pyrimidin-4-yl)-5-fluoro-2-methylphenyl)-2-fluoro-4-(2-hydroxypropan-2-yl)benzamide]
GI50 (OCI-LY3 cells): 4580 nM | GI50 (TMD8 cells): 0.53 nM
